Measurements as given in US6683027B2, “Herbicidal mixtures” (BASF Aktienegesellschaft, priority 2000, dated 2004).

Legend:
[1] = tested on: Lolium perenne; assay: greenhouse pre-emergence trial, percent damage vs untreated control 21 days after treatment; assay type: in vivo; conditions: 3.75 g/ha, LOLPE
[2] = tested on: Lamium purpureum; assay: as above; assay type: in vivo; conditions: 3.75 g/ha, LAMPU, Example 1A

FC(F)(F)c1ccc(-c2nccc(Oc3cccc(C(F)(F)F)c3)n2)cc1 [Compound A, 4-(3-trifluoromethylphenoxy)-2-(4-trifluoromethylphenyl)-pyrimidine]
Compound A alone (% control) ([1]; Example 1A): 5% | Compound A alone (% control) ([1]; Example 2): 15% | Compound A alone (% control) [2]: 10%
